Among the data in ChEMBL document CHEMBL5518248, “Design, Synthesis, and Biological Evaluation of Novel Arylomycins against Multidrug-Resistant Gram-Negative Bacteria” (J Med Chem, 2024) are MIC values, retold here.

A word on the MIC: it is the smallest concentration in the dilution series that meets the test's criterion for growth inhibition.

Each structure is given as a SMILES string. Some results are limits rather than exact numbers.

Assay type in all cases: functional
Details in all cases: time 18-20 hrs

In assay [1] the test system is Klebsiella pneumoniae. The experiment in a line: Antibacterial activity against Klebsiella pneumoniae 15-5 assessed as inhibition of bacterial growth measured after 18 to 20 hrs by broth microdilution method. On the technique in general: In broth dilution the organism is exposed to a series of concentrations in liquid medium.
The test system of assay [2] is Acinetobacter baumannii. The experiment in a line: Antibacterial activity against Acinetobacter baumannii 17-2 assessed as inhibition of bacterial growth measured after 18 to 20 hrs by broth microdilution method.
Assay [3] relates to Escherichia coli. The experiment in a line: Antibacterial activity against Escherichia coli 14-4 assessed as inhibition of bacterial growth measured after 18 to 20 hrs by broth microdilution method.
Assay [4] concerns Pseudomonas aeruginosa. The experiment in a line: Antibacterial activity against Pseudomonas aeruginosa 17-1 assessed as inhibition of bacterial growth measured after 18 to 20 hrs by broth microdilution method.
Assay [5] deals with Klebsiella pneumoniae. The experiment in a line: Antibacterial activity against Klebsiella pneumoniae 15-1 assessed as inhibition of bacterial growth measured after 18 to 20 hrs by broth microdilution method.
For assay [6], the system named is Klebsiella pneumoniae. The experiment in a line: Antibacterial activity against Klebsiella pneumoniae 15-4 assessed as inhibition of bacterial growth measured after 18 to 20 hrs by broth microdilution method.
For assay [7], the system named is Escherichia coli. The experiment in a line: Antibacterial activity against Escherichia coli 14-2 assessed as inhibition of bacterial growth measured after 18 to 20 hrs by broth microdilution method.
The subject of assay [8] is Escherichia coli. The experiment in a line: Antibacterial activity against Escherichia coli ATCC 35218 assessed as inhibition of bacterial growth measured after 18 to 20 hrs by broth microdilution method.
Assay [9] relates to Pseudomonas aeruginosa. The experiment in a line: Antibacterial activity against Pseudomonas aeruginosa 19-5 assessed as inhibition of bacterial growth measured after 18 to 20 hrs by broth microdilution method.
Assay [10] has as its system Acinetobacter baumannii. The experiment in a line: Antibacterial activity against Acinetobacter baumannii 17-8 assessed as inhibition of bacterial growth measured after 18 to 20 hrs by broth microdilution method.

Regarding `COCCSSCc1ccc(-c2ncc(C(=O)N[C@@H](CCN)C(=O)N(C)[C@@H]3C(=O)N[C@@H](C)C(=O)N[C@H](C(=O)NCC#N)Cc4ccc(OCCN)c(c4)-c4cc3ccc4OCCN)c(C)n2)cc1.O=C(O)C(F)(F)F.O=C(O)C(F)(F)F.O=C(O)C(F)(F)F.O=C(O)C(F)(F)F`, the MIC in assay [1] was 1 µg/mL; in [2] it was 8 µg/mL; in [3], 0.5 µg/mL; in assay [4], over 64 µg/mL; in assay [5] it was 1 µg/mL; in assay [6] it was 2 µg/mL. Moreover, the minimal inhibitory concentration (MIC) in assay [7] was 0.5 µg/mL; in assay [8], 0.25 µg/mL; in assay [9], over 64 µg/mL; in assay [10], 2 µg/mL.

For the compound `C=CC(=O)N[C@@H]1Cc2ccc(OCCN)c(c2)-c2cc(ccc2OCCN)[C@H](N(C)C(=O)[C@H](CCN)NC(=O)c2cnc(-c3ccc(C(C)(C)C)cc3)nc2C)C(=O)N[C@@H](C)C(=O)N1.O=C(O)C(F)(F)F.O=C(O)C(F)(F)F.O=C(O)C(F)(F)F.O=C(O)C(F)(F)F`, the MIC is 32 µg/mL in assay [1]; over 64 µg/mL in [2]; 64 µg/mL in assay [3]; over 64 µg/mL in [4]; 32 µg/mL in [5]; 64 µg/mL in assay [6]. Also, the MIC in assay [7] was 64 µg/mL; in assay [8], 64 µg/mL; in assay [9], over 64 µg/mL; in [10] it was 64 µg/mL.

As for `Cc1nc(-c2ccc(CSSC(C)C)cc2)ncc1C(=O)N[C@@H](CCN)C(=O)N(C)[C@@H]1C(=O)N[C@@H](C)C(=O)N[C@H](C(=O)NCC#N)Cc2ccc(OCCN)c(c2)-c2cc1ccc2OCCN.O=C(O)C(F)(F)F.O=C(O)C(F)(F)F.O=C(O)C(F)(F)F.O=C(O)C(F)(F)F`, the minimum inhibitory concentration (MIC) in [1] is 0.06 µg/mL; in assay [2], 0.5 µg/mL; in [3] it was 0.06 µg/mL; in assay [4] it was 2 µg/mL; in assay [5] it was 0.06 µg/mL; in assay [6], 0.125 µg/mL. The minimal inhibitory concentration (MIC) in [7] was 0.06 µg/mL; in assay [8], at most 0.03 µg/mL; in assay [9], 4 µg/mL; in assay [10], 0.125 µg/mL.

For the compound `CSSC1(c2ccc(-c3ncc(C(=O)N[C@@H](CCN)C(=O)N(C)[C@@H]4C(=O)N[C@@H](C)C(=O)N[C@H](C(=O)NCC#N)Cc5ccc(OCCN)c(c5)-c5cc4ccc5OCCN)c(C)n3)cc2)CCC1.O=C(O)C(F)(F)F.O=C(O)C(F)(F)F.O=C(O)C(F)(F)F.O=C(O)C(F)(F)F`, the minimal inhibitory concentration (MIC) was found to be 0.125 µg/mL in assay [1]; 0.5 µg/mL in assay [2]; 0.06 µg/mL in assay [3]; 16 µg/mL in assay [4]; 0.06 µg/mL in assay [5]; 0.125 µg/mL in assay [6]. The MIC was 0.125 µg/mL in assay [7], at most 0.03 µg/mL in assay [8], 2 µg/mL in assay [9] and 0.25 µg/mL in assay [10].

For the compound `Cc1nc(-c2ccc(CSSC3CCCCC3)cc2)ncc1C(=O)N[C@@H](CCN)C(=O)N(C)[C@@H]1C(=O)N[C@@H](C)C(=O)N[C@H](C(=O)NCC#N)Cc2ccc(OCCN)c(c2)-c2cc1ccc2OCCN.O=C(O)C(F)(F)F.O=C(O)C(F)(F)F.O=C(O)C(F)(F)F.O=C(O)C(F)(F)F`, the MIC in [1] came to 0.25 µg/mL; in assay [2], 1 µg/mL; in assay [3] it was 0.125 µg/mL; in assay [4], 4 µg/mL; in [5], 0.5 µg/mL; in assay [6], 0.25 µg/mL. For the same compound, the MIC in assay [7] was at most 0.03 µg/mL; in assay [8] it was at most 0.03 µg/mL; in [9], 4 µg/mL; in assay [10], 0.5 µg/mL.

As to `Cc1nc(-c2ccc(CSSCCC(F)(F)F)cc2)ncc1C(=O)N[C@@H](CCN)C(=O)N(C)[C@@H]1C(=O)N[C@@H](C)C(=O)N[C@H](C(=O)NCC#N)Cc2ccc(OCCN)c(c2)-c2cc1ccc2OCCN.O=C(O)C(F)(F)F.O=C(O)C(F)(F)F.O=C(O)C(F)(F)F.O=C(O)C(F)(F)F`, the MIC in assay [1] was 0.25 µg/mL; in assay [2], 2 µg/mL; in assay [3], 0.125 µg/mL; in assay [4], 8 µg/mL; in assay [5] it was 0.25 µg/mL; in assay [6] it was 0.25 µg/mL. The minimal inhibitory concentration (MIC) was determined as 0.125 µg/mL in [7], 0.06 µg/mL in assay [8], 8 µg/mL in assay [9] and 1 µg/mL in [10].

Consider `Cc1nc(-c2ccc(C(C)(C)C)cc2)ncc1C(=O)N[C@@H](CCN)C(=O)N(C)[C@@H]1C(=O)N[C@@H](C)C(=O)N[C@H](C(=O)NN(C)CC#N)Cc2ccc(OCCN)c(c2)-c2cc1ccc2OCCN.Cl.Cl.Cl.Cl`, for which the MIC in assay [1] is 16 µg/mL; in assay [2], over 64 µg/mL; in [3], 4 µg/mL; in [4] it was over 64 µg/mL; in assay [5], 8 µg/mL; in assay [6], 16 µg/mL. Moreover, the MIC in assay [7] was 16 µg/mL; in assay [8] it was 4 µg/mL; in assay [9], over 64 µg/mL; in assay [10], 64 µg/mL.

As for `Cc1nc(C2CCC3(CC2)CC3)ncc1C(=O)N[C@@H](CCN)C(=O)N(C)[C@@H]1C(=O)N[C@@H](C)C(=O)N[C@H](C(=O)NCC#N)Cc2ccc(OCCN)c(c2)-c2cc1ccc2OCCN.O=C(O)C(F)(F)F.O=C(O)C(F)(F)F.O=C(O)C(F)(F)F.O=C(O)C(F)(F)F`, the MIC in assay [1] is 2 µg/mL; in assay [2], 64 µg/mL; in [3] it was 1 µg/mL; in assay [4], over 64 µg/mL; in assay [5], 2 µg/mL; in assay [6], 4 µg/mL. In addition, the MIC in [7] was 2 µg/mL; in assay [8] it was 1 µg/mL; in assay [9], over 64 µg/mL; in [10], 8 µg/mL.

With `Cc1nc(-c2ccc(C(C)(C)C)cc2)ncc1C(=O)N[C@@H](CCN)C(=O)N(C)[C@@H]1C(=O)N[C@@H](C)C(=O)N[C@H](C(=O)CC#N)Cc2ccc(OCCN)c(c2)-c2cc1ccc2OCCN.O=C(O)C(F)(F)F.O=C(O)C(F)(F)F.O=C(O)C(F)(F)F.O=C(O)C(F)(F)F`, the MIC in assay [1] was 16 µg/mL; in assay [2] it was 16 µg/mL; in assay [3] it was 8 µg/mL; in [4], over 64 µg/mL; in assay [5] it was 16 µg/mL; in assay [6], 16 µg/mL. The MIC in assay [7] is 8 µg/mL; in assay [8], 4 µg/mL; in assay [9], over 64 µg/mL; in assay [10], 16 µg/mL.

In the case of `Cc1nc(-c2ccc(C(C)(C)C)cc2)ncc1C(=O)N[C@@H](CCN)C(=O)N(C)[C@H]1Cc2ccc(OCCN)c(c2)-c2cc(ccc2OCCN)[C@@H](C(=O)NCC#N)NC(=O)[C@H](C)NC1=O.Cl.Cl.Cl.Cl`, the minimum inhibitory concentration (MIC) in assay [1], in assay [2], in assay [3], in [4], in assay [5] and in assay [6] was over 64 µg/mL throughout. For the same compound, the minimum inhibitory concentration (MIC) in assay [7], in assay [8] and in [9] was over 64 µg/mL in each case.

`Cc1nc(-c2ccc(C(C)(C)C)cc2)ncc1C(=O)N[C@@H](CCN)C(=O)N(C)[C@@H]1C(=O)N[C@@H](C)C(=O)N[C@H](C(=O)NCC#N)c2ccc(OCCN)c(c2)-c2cc1ccc2OCCN.Cl.Cl.Cl.Cl`: the MIC in [1] is 64 µg/mL; in assay [2] it was over 64 µg/mL; in [3] it was 32 µg/mL; in assay [4] it was over 64 µg/mL; in assay [5] it was 64 µg/mL; in assay [6], over 64 µg/mL. Besides, the MIC in [7] stood at 32 µg/mL; in assay [8], 64 µg/mL; in assay [9], 32 µg/mL.

In the case of `Cc1nc(-c2ccc(C(C)(C)C)cc2)ncc1C(=O)N[C@@H](CCN)C(=O)N(C)[C@@H]1C(=O)N[C@@H](C)C(=O)N[C@H](C(=O)NOCC#N)Cc2ccc(OCCN)c(c2)-c2cc1ccc2OCCN.Cl.Cl.Cl.Cl`, the MIC in assay [1] is 1 µg/mL; in [2], 32 µg/mL; in assay [3], 0.5 µg/mL; in assay [4], over 64 µg/mL; in assay [5] it was 0.5 µg/mL; in assay [6] it was 2 µg/mL. The MIC in [7] is 0.5 µg/mL; in assay [8], 0.5 µg/mL; in assay [9], over 64 µg/mL.

As for `Cc1nc(-c2ccc(C(C)(C)C)cc2)ncc1C(=O)N[C@@H](CCN)C(=O)N(C)[C@@H]1C(=O)NCCC(=O)N[C@H](C(=O)NCC#N)Cc2ccc(OCCN)c(c2)-c2cc1ccc2OCCN.Cl.Cl.Cl.Cl`, the minimal inhibitory concentration (MIC) in assay [1] was 64 µg/mL; in assay [2] it was over 64 µg/mL; in assay [3], 16 µg/mL; in assay [4], over 64 µg/mL; in assay [5], 32 µg/mL; in assay [6] it was 32 µg/mL. For the same compound, the MIC in assay [7] was 16 µg/mL; in assay [8], 16 µg/mL; in assay [9], over 64 µg/mL.

`Cc1nc(-c2ccc(C(C)(C)C)cc2)ncc1C(=O)N[C@@H](CCN)C(=O)N(C)[C@@H]1C(=O)N[C@@H](C)C(=O)N[C@H](C(=O)NCS(=O)(=O)O)Cc2ccc(OCCN)c(c2)-c2cc1ccc2OCCN.Cl.Cl.Cl.Cl`: the MIC in [1] was 8 µg/mL; in assay [2], over 64 µg/mL; in [3] it was 8 µg/mL; in assay [4] it was over 64 µg/mL; in assay [5], 4 µg/mL; in [6], 16 µg/mL. Also, the MIC was 32 µg/mL in assay [7], 16 µg/mL in assay [8] and over 64 µg/mL in [9].

On to `Cc1nc(-c2ccc(C(C)(C)C)cc2)ncc1C(=O)N[C@@H](CCN)C(=O)N(C)[C@@H]1C(=O)N[C@@H](C)C(=O)N[C@H](C(=O)NCC(=O)O)Cc2ccc(OCCN)c(c2)-c2cc1ccc2OCCN.Cl.Cl.Cl.Cl`, for which the MIC in assay [1] is 1 µg/mL; in assay [2], 64 µg/mL; in assay [3], 1 µg/mL; in assay [4] it was over 64 µg/mL; in assay [5] it was 1 µg/mL; in assay [6], 2 µg/mL. Besides, the MIC is 1 µg/mL in assay [7], 1 µg/mL in assay [8] and over 64 µg/mL in assay [9].
